Values after ≈ are worked out from the molar mass of the structure shown.
Legend:
[1] = test system: O=C(Cc1cccs1)N[C@@H]1C(=O)N2C(C(=O)O)=C(/C=C/c3ccc([N+](=O)[O-])cc3[N+](=O)[O-])CS[C@H]12; assay: Steady-state kinetic parameters of substrate hydrolysis by VIM-2; format: biochemical, P. aeruginosa; settings: other: VIM-2, pH 7.5, 25° C., average ± SD, triplicate
Description: (§1) Steady-state reactions were followed using an Agilent (Santa Clara, Calif.) 8453 Diode Array spectrophotometer as previously described. […] For ceftazidime and cefepime, a 0.2-cm path length quartz cuvette was used. A nonlinear leastsquares fit of the data (Henri Michaelis-Menten equation) using Enzfitter (Biosoft Corporation, Ferguson, Mo.) was employed to obtain the steady-state kinetic parameters Vmax and KM according to equation 1.
(§2) In this equation the observed first-order rate constant k=kcat/KM*[E].

[2] = test system: CC(=O)OCC1=C(C(=O)O)N2C(=O)[C@@H](NC(=O)Cc3cccs3)[C@H]2SC1; assay: as above; format: biochemical, P. aeruginosa; settings: other: VIM-2, pH 7.5, 25° C., average ± SD, triplicate
Description: as §1, §2

[3] = test system: C[C@@H](O)[C@H]1C(=O)N2C(C(=O)O)=C(SCCN=CN)C[C@H]12; assay: as above; format: biochemical, P. aeruginosa; settings: other: VIM-2, pH 7.5, 25° C., average ± SD, triplicate
Description: as §1, §2

[4] = test system: E. coli DH10B pBCSK(−) producing R228P variant; assay: MIC by agar dilution, E. coli DH10B producing VIM-2 R228P; format: cell-based; settings: Escherichia coli, MHA
Protocol: (§3) E. coli DH10B (Invitrogen, Carlsbad, Calif.) was used as a host strain for pBCSK (−) blaVIM-2, and to obtain a mutant library at position 228 by site-saturation mutagenesis, using the QuickChange XL Site-directed Mutagenesis Kit (Stratagene). Briefly, primers that capture all 19 variants at MBL position 228 were designed and PCR mutagenic reactions were conducted using pBCSK (−) blaVIM-2 as a template, and transformed into E. coli DH10B. Single colonies were selected for plasmid purification, and successful mutagenesis was verified by complete DNA sequencing.
(§4) The effect of Zn^2+ availability was also tested by agar dilution using MH supplemented with 250 μM ZnSO4 or 5 μM EDTA. Reported values are the mode of at least 3 biological replicates.

VIM-24 [5] = target: T1, VIM-24 (Escherichia coli, UniProt Q5U7L7, R205L); assay: Steady-state kinetic parameters of substrate hydrolysis by VIM-24; format: biochemical; settings: pH 7.5, 25° C., average ± SD, triplicate
T1 construct: which corresponds to cleavage after residues 20 (plus an additional Met residue on the N-terminus); made in house; host or cells: E. coli BL21(DE3) pLys, plasmid pET-24a(+)-blaVIM-24-S21
Description: as §1, §2

[6] = test system: E. coli DH10B pBCSK(−) producing R228Q variant; assay: MIC by agar dilution, E. coli DH10B producing VIM-2 R228Q; format: cell-based; settings: Escherichia coli, MHA
Protocol: as §3, §4

[7] = test system: E. coli DH10B pBCSK(−) producing R228K variant; assay: MIC by agar dilution, E. coli DH10B producing VIM-2 R228K; format: cell-based; settings: Escherichia coli, MHA
Protocol: as §3, §4

E. coli pBC SK(−) = assay: MIC by agar dilution, E. coli DH10B host with empty phagemid; format: cell-based; settings: Escherichia coli, MHA
Protocol: as §3, §4

VIM-2 = target: T2, VIM-2 (Pseudomonas aeruginosa, UniProt Q9K2N0); assay: BTZ inhibition kinetics of nitrocefin hydrolysis by VIM-2; format: biochemical, P. aeruginosa; settings: for k−2: rate constant for breakdown of E*I; for k2: rate constant for formation of E*I
T2 construct: made in house; host or cells: E. coli BL21(DE3) pLys, plasmid pET-24a(+)-blaVIM-2-S21
Description: (§5) Analysis of BTZ inhibition kinetics. Models involving one, or two-step slow binding were considered to analyze BTZ inhibition of NFC hydrolysis by VIM-2 and VIM-24 (Scheme 1).
(§6) Here E represents the free enzyme, and I the free inhibitor, EI is the final enzyme-inhibitor complex for a single step slow binding mechanism, and E*I is the enzyme-inhibitor complex formed after conformational changes in a two-step slow binding mechanism. Therefore, the dissociation constant for the EI complex (Ki), also called the inhibitor constant, is defined as Ki=k−1/k1; the dissociation constant for the E*I complex (Ki′) is defined as Ki′=k−2/k2, and the overall dissociation constant for the two-step mechanism (Ki*) is defined as Ki*=Ki/(1+([…])).
(§7) The Ki for each inhibitor was determined by direct competition assays under steady-state conditions. The initial velocity was measured in the presence of a constant concentration of enzyme (3 nM for VIM-2 and 4 nM for VIM-24) with increasing concentrations of inhibitor (5-60 μM) against a fixed concentration (5 x KM) of the indicator substrate, NCF, as previously described (42-44). The reactions were started by addition of VIM-2 or VIM-24 to substrate or to mixtures of substrate and inhibitor. Data were linearized by plotting inverse initial steady-state velocities (1/v0) against inhibitor concentration (I). Ki (observed) was determined by dividing the value for the y intercept by the slope of the line. Ki determinations were corrected to account for the affinity of NCF for the β-lactamase according to equation 3.
(§8) Measurements of association rate constants for inhibitor binding were carried out at 25° C. in 10 mM HEPES at pH 7.5 supplemented with 200 mM NaCl, 50 μM […] and 50 μg/ml BSA, in the presence of several concentrations of each compound. Reactions were then initiated by the addition of β-lactamase (3 nM VIM-2 or 4 nM VIM-24) to a mixture of 50 μM NCF and each BTZ without pre-incubation. Inhibitor association rate constants were estimated from linear extrapolation of the observed rate constant for inhibition (kobs), which was obtained by fitting progress curves of NFC hydrolysis to Eq. 4:
(§9) As previously described, the linear dependence of kobs vs. [I] at limiting I concentration approximates second-order rate constant k2/Ki. The observed second-order rate constant also includes an adjustment for competition between inhibitor and substrate binding (Eq. 5).
(§10) Also, vs calculated from the progress curves of NCF hydrolysis for each concentration of inhibitor were used to determine Ki*, according to the relationship shown in equation 6 (5). The value reported is the mean of three velocities±SD.
(§11) To further test the time-dependent inhibition mechanism of inhibitor binding, assays using dilutions of pre-formed complexes were performed. For these experiments, 1 μM of enzyme was incubated with varying concentrations of the inhibitor which allowed for complete inactivation of the enzyme during the 5 min incubation at 25° C. The reactions were then diluted 2,000-fold in 10 mM HEPES at pH 7.5 supplemented with 200 mM NaCl, 50 μM […] and 50 μg/ml BSA, which contained 50 μM NCF. Reactivation of the enzyme based on NCF hydrolysis was monitored over time. Control reaction with the free enzyme was performed in the same fashion.

VIM-24 [8] = target: T1, VIM-24; assay: BTZ inhibition kinetics of nitrocefin hydrolysis by VIM-24; format: biochemical; settings: for k−2: rate constant for breakdown of E*I; for k2: rate constant for formation of E*I
Description: as §5, §6, §7, §8, §9, §10, §11

[9] = initial complex EI, NCF as reporter substrate
[10] = overall dissociation constant of two-step mechanism (E*I)

VIM-2 (Pseudomonas aeruginosa)
Km [1]: 13 ± 1 µM | kcat [1]: 430 ± 20 s⁻¹ | kcat/Km [1]: 3.3e+07 M⁻¹ s⁻¹ | Km [2]: 17 ± 2 µM | kcat [2]: 168 ± 8 s⁻¹ | kcat/Km [2]: 9.8e+06 M⁻¹ s⁻¹ | Km [3]: 12 ± 1 µM | kcat [3]: 45 ± 1 s⁻¹ | kcat/Km [3]: 3.6e+06 M⁻¹ s⁻¹

CC(=O)OCC1=C(C(=O)O)N2C(=O)[C@@H](NC(=O)Cc3cccs3)[C@H]2SC1 [Cephalothin]
MIC [4]: 16 µg/mL (≈ 40.4 µM) | Kcat (VIM-24 [5]): 150 ± 9 s⁻¹ | Km (VIM-24 [5]): 33 ± 5 µM | MIC [6]: 1020 µg/mL (≈ 2580 µM) | MIC [7]: 16 µg/mL (≈ 40.4 µM) | MIC (E. coli pBC SK(−)): 8 µg/mL (≈ 20.2 µM)

CC1(C)SC2CSC(CS)N2C1C(=O)O [D-VC26]
Ki (VIM-2; [9]): 14000 ± 1000 nM | Ki (VIM-2; [10]): 100 ± 30 nM | k−2 (VIM-2): 0.0006 ± 4 × 10^−4 s^−1 | k2 (VIM-2): 0.09 ± 4 × 10^−3 s^−1 | k−2 (VIM-24 [8]): 0.00007 ± 1 × 10^−5 s^−1 | k2 (VIM-24 [8]): 0.01 ± 3 × 10^−3 s−1

O=C(O)[C@H]1CS[C@@H]2CS[C@@H](CS)N12 [D-CS319]
Ki (VIM-2; [9]): 5400 ± 400 nM | Ki (VIM-2; [10]): 180 ± 20 nM | k−2 (VIM-2): 0.0003 ± 1 × 10^−4 s^−1 | k2 (VIM-2): 0.01 ± 1 × 10^−3 s^−1 | k−2 (VIM-24 [8]): 0.004 ± 1 × 10^−3 s^−1 | k2 (VIM-24 [8]): 0.07 ± 4 × 10^−3 s−1

O=C(Cc1cccs1)N[C@@H]1C(=O)N2C(C(=O)O)=C(/C=C/c3ccc([N+](=O)[O-])cc3[N+](=O)[O-])CS[C@H]12 [Nitrocefin]
Kcat (VIM-24 [5]): 171 ± 4 s⁻¹ | Km (VIM-24 [5]): 11 ± 1 µM

Source: patent US10251869B2, “Compositions and methods of inhibiting metallo-β-lactamases” (priority 2014, dated 2019)
